Data on 24 molecules can be found in US10106556B2, “Heterocyclic compound” (TAKEDA PHARMACEUTICAL COMPANY LIMITED, priority 2015, dated 2018).

The target in the assay is T1, His-hMAGL (recombinant polyhistidine tagged human MAGL protein) (Homo sapiens, UniProt Q99685).
T1 construct: made in house; host or cells: E. coli BL21(DE3)
T1 sequence (Q99685 1-303): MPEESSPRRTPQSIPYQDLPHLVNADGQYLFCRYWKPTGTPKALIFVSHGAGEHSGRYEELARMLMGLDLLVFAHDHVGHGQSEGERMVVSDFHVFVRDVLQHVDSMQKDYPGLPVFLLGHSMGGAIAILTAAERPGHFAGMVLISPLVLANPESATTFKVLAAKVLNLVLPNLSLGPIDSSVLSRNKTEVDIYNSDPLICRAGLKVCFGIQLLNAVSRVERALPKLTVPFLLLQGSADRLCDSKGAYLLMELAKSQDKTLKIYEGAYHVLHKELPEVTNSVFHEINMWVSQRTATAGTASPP
Kind of assay: Measurement of MAGL inhibitory activity (arachidonic acid production from 2-arachidonylglycerol, RapidFire-mass spectrometry). To be noted: MAGL inhibitory rate at 10 μM test compound; 60 min preincubation with His-hMAGL, 2-arachidonylglycerol substrate, 10 min reaction at room temperature. It is filed as biochemical. The method, then: Furthermore, acetonitrile (50 μL) containing 3 μM arachidonic acid-d8 (Cayman Chemical Company) was added and the mixture was stirred.
The amount of arachidonic acid in the obtained enzyme reaction mixture was calculated by measuring by RapidFire-mass spectrometry and correcting by the amount of arachidonic acid-d8. High Throughput online solid phase extraction was performed using RapidFire 300™ system (Agilent Technologies, Inc.). Samples were loaded on SPE C4 cartridge (Agilent Technologies, Inc.) and desalted with 0.2 (v/v) % acetic acid (Wako Pure Chemical Industries, Ltd.) in ultrapure water/acetonitrile (70/30, v/v) at a flow rate of 1.5 mL/min, eluted at a flow rate of 0.5 mL/min with 0.2 (v/v) % acetic acid dissolved in acetonitrile/ultrapure water (90/10, v/v), and injected into the mass spectrometry part. The injection needle was washed with ultrapure water (500 millisecond) and acetonitrile (500 millisecond) to minimize carry-over. […] The RapidFire300 system was controlled by RapidFire UI software version 3.6 (Agilent Technologies, Inc.).
The mass spectrometry of the resultant product was performed using API4000™ triple quadrupole mass spectrometer (AB SCIEX) equipped with an electrospray ion sauce (TurboIon Spray™) in a negative selected reaction monitoring (SRM) mode. The conditions of SRM are shown below. The parameters of the instrument were optimized as follows: capillary temperature 600° C., ion spray voltage −4.5 kV, collision gas 8, curtain gas 15 psi, ion source gas 1 60 psi, ion source gas 2 60 psi. The mass spectrometer was controlled by Analyst™ software version 1.5.1 (AB SCIEX). The peak area integration was analyzed using RapidFire integrator software version 3.6 (Agilent Technologies, Inc.).
MAGL inhibitory rate (%) was calculated according to the following calculation formula. (1−(arachidonic acid production amount of test compound addition group−arachidonic acid production amount of enzyme−free group)÷(arachidonic acid production amount of test compound-free group−arachidonic acid production amount of enzyme-free group))×100
In general, inhibition refers to the relative decrease from the control value, in per cent. With `N#Cc1cccc(OCC2CCN(C(=O)c3cc4c(cc3F)OCC(=O)N4)CC2)c1Cl` [Example 75, 2-chloro-3-((1-((7-fluoro-3-oxo-3,4-dihydro-2H-1,4-benzoxazin-6-yl)carbonyl)piperidin-4-yl)methoxy)benzonitrile], the inhibition at 10 µM was determined as 102%.

Take `O=C1COc2cc(F)c(C(=O)N3CC(COc4ccc(Cl)cc4Cl)C3)cc2N1` [Example 76, 6-((3-((2,4-dichlorophenoxy)methyl)azetidin-1-yl)carbonyl)-7-fluoro-2H-1,4-benzoxazin-3(4H)-one]: the inhibition at 10 µM amounted to 105%.

In the case of `O=C1COc2cc(F)c(C(=O)N3CC(COc4ccc(F)cc4Cl)C3)cc2N1` [Example 77, 6-((3-((2-chloro-4-fluorophenoxy)methyl)azetidin-1-yl)carbonyl)-7-fluoro-2H-1,4-benzoxazin-3(4H)-one], the inhibition at 10 µM was found to be 105%.

As to `O=C1COc2ccc(C(=O)N3CC(COc4ccc(F)cc4Cl)C3)cc2N1` [Example 78, 6-((3-((2-chloro-4-fluorophenoxy)methyl)azetidin-1-yl)carbonyl)-2H-1,4-benzoxazin-3(4H)-one], the inhibition at 10 µM was determined as 100%. As for `O=C(c1ccc2ccc(=O)[nH]c2c1)N1CCC(COc2ccc(F)cc2Cl)CC1` [Example 79, 7-((4-((2-chloro-4-fluorophenoxy)methyl)piperidin-1-yl)carbonyl)quinolin-2(1H)-one], the inhibition at 10 µM is 103%. Next, `O=C1COc2cc(F)c(C(=O)N3CCC(COC4CCCCC4)CC3)cc2N1` [Example 80, 6-((4-((cyclohexyloxy)methyl)piperidin-1-yl)carbonyl)-7-fluoro-2H-1,4-benzoxazin-3(4H)-one]: 100%. Next, `N#CC1(COc2ccc(F)cc2Cl)CCN(C(=O)c2cc3c(cc2F)OCC(=O)N3)CC1` [Example 81, 4-((2-chloro-4-fluorophenoxy)methyl)-1-((7-fluoro-3-oxo-3,4-dihydro-2H-1,4-benzoxazin-6-yl)carbonyl)piperidine-4-carbonitrile]: 99%.

For the molecule `C=C(C)c1ccc(OCC2CCN(C(=O)c3cc4c(cc3F)OCC(=O)N4)CC2)c(Cl)c1` [Example 82, 6-((4-((2-chloro-4-(prop-1-en-2-yl)phenoxy)methyl)piperidin-1-yl)carbonyl)-7-fluoro-2H-1,4-benzoxazin-3(4H)-one], the inhibition at 10 µM came to 101%. Next, `O=C1COc2cc(F)c(C(=O)N3CCC(COC4CCOCC4)CC3)cc2N1` [Example 83, 7-fluoro-6-((4-((tetrahydro-2H-pyran-4-yloxy)methyl)piperidin-1-yl)carbonyl)-2H-1,4-benzoxazin-3(4H)-one]: 86%; `COC(=O)c1ccc(OCC2CCN(C(=O)c3cc4c(cc3F)OCC(=O)N4)CC2)c(Cl)c1` [Example 84, methyl-3-chloro-4-((1-((7-fluoro-3-oxo-3,4-dihydro-2H-1,4-benzoxazin-6-yl)carbony)piperidin-4-yl)methoxy)benzoate]: 97%. Next, `COC(=O)c1cc(F)ccc1OCC1CCN(C(=O)c2cc3c(cc2F)OCC(=O)N3)CC1` [Example 85, methyl 5-fluoro-2-((1-((7-fluoro-3-oxo-3,4-dihydro-2H-1,4-benzoxazin-6-yl)carbonyl)piperidin-4-yl)methoxy)benzoate]: 102%.

As for `O=C1COc2cc(Cl)c(C(=O)N3CCC(COc4ccc(F)cc4Cl)CC3)cc2N1` [Example 86, 7-chloro-6-((4-((2-chloro-4-fluorophenoxy)methyl)piperidin-1-yl)carbonyl)-2H-1,4-benzoxazin-3(4H)-one], the inhibition at 10 µM was 98%. The value for `O=C1COc2cc(Cl)c(C(=O)N3CC(COc4ccc(F)cc4Cl)C3)cc2N1` [Example 87, 7-chloro-6-((3-((2-chloro-4-fluorophenoxy)methyl)azetidin-1-yl)carbonyl)-2H-1,4-benzoxazin-3(4H)-one] was 102%. Next, `Cc1cc2c(cc1C(=O)N1CC(COc3ccc(F)cc3Cl)C1)NC(=O)CO2` [Example 88, 6-((3-((2-chloro-4-fluorophenoxy)methyl)azetidin-1-yl)carbonyl)-7-methyl-2H-1,4-benzoxazin-3 (4H)-one]: 96%; `Cc1cc2c(cc1C(=O)N1CCC(COc3ccc(F)cc3Cl)CC1)NC(=O)CO2` [Example 89, 6-((4-((2-chloro-4-fluorophenoxy)methyl)piperidin-1-yl)carbonyl)-7-methyl-2H-1,4-benzoxazin-3(4H)-one]: 90%.

Take `CC(C)(O)c1ccc(OCC2CCN(C(=O)c3cc4c(cc3F)OCC(=O)N4)CC2)c(Cl)c1` [Example 90, 6-((4-((2-chloro-4-(2-hydroxypropan-2-yl)phenoxy)methyl)piperidin-1-yl)carbonyl)-7-fluoro-2H-1,4-benzoxazin-3(4H)-one]: the inhibition at 10 µM is 98%. Next, `CC(C)(O)c1cc(F)ccc1OCC1CCN(C(=O)c2cc3c(cc2F)OCC(=O)N3)CC1` [Example 91, 7-fluoro-6-((4-((4-fluoro-2-(2-hydroxypropan-2-yl)phenoxy)methyl)piperidin-1-yl)carbonyl)-2H-1,4-benzoxazin-3(4H)-one]: 99%; `N#Cc1ccc(OCC2CN(C(=O)c3cc4c(cc3F)OCC(=O)N4)C2)c(Cl)c1` [Example 92, 3-chloro-4-((1-((7-fluoro-3-oxo-3,4-dihydro-2H-1,4-benzoxazin-6-yl)carbonyl)azetidin-3-yl)methoxy)benzonitrile]: 99%. The value for `O=C1COc2ccc(C(=O)N3CCC(COc4ccccc4F)CC3)cc2N1` [Example 94, 6-((4-((2-fluorophenoxy)methyl)piperidin-1-yl)carbonyl)-2H-1,4-benzoxazin-3(4H)-one] was 97%; that for `O=C1COc2cc(F)c(C(=O)N3CCC(COC4CCC(F)(F)CC4)CC3)cc2N1` [Example 95, 6-((4-(((4,4-difluorocyclohexyl)oxy)methyl)piperidin-1-yl)carbonyl)-7-fluoro-2H-1,4-benzoxazin-3(4H)-one] was 97%. Turning to `O=C1COc2cc(F)c(C(=O)N3CC(F)(COc4ccc(F)cc4Cl)C3)cc2N1` [Example 96, 6-((3-((2-chloro-4-fluorophenoxy)methyl)-3-fluoroazetidin-1-yl)carbonyl)-7-fluoro-2H-1,4-benzoxazin-3(4H)-one], the inhibition at 10 µM was 100%. Consider `COc1cc2c(cc1C(=O)N1CCC(COc3ccc(F)cc3Cl)CC1)NC(=O)CO2` [Example 97, 6-((4-((2-chloro-4-fluorophenoxy)methyl)piperidin-1-yl)carbonyl)-7-methoxy-2H-1,4-benzoxazin-3(4H)-one], for which the inhibition at 10 µM worked out at 100%. Consider `COc1cc2c(cc1C(=O)N1CC(COc3ccc(F)cc3Cl)C1)NC(=O)CO2` [Example 98, 6-((3-((2-chloro-4-fluorophenoxy)methyl)azetidin-1-yl)carbonyl)-7-methoxy-2H-1,4-benzoxazin-3(4H)-one], for which the inhibition at 10 µM was found to be 99%. On to `O=C1COc2cc(F)c(C(=O)N3CCC(COc4ccc(F)cc4Br)CC3)cc2N1` [Example 99, 6-((4-((2-bromo-4-fluorophenoxy)methyl)piperidin-1-yl)carbonyl)-7-fluoro-2H-1,4-benzoxazin-3(4H)-one], for which the inhibition at 10 µM came out at 99%.
